This is an account of results in BindingDB's records for doi:10.1074/jbc.M112.356576 (University of Adelaide, 2012).

By Ki is commonly meant the equilibrium dissociation constant of an inhibitor or competing ligand from its target. Read a high Ki as lower affinity.

Structures are written as SMILES.

The assay addresses T1, Bifunctional ligase/repressor BirA (Staphylococcus aureus, UniProt A0A3A5LBF0).
T1 sequence (A0A3A5LBF0 whole entry): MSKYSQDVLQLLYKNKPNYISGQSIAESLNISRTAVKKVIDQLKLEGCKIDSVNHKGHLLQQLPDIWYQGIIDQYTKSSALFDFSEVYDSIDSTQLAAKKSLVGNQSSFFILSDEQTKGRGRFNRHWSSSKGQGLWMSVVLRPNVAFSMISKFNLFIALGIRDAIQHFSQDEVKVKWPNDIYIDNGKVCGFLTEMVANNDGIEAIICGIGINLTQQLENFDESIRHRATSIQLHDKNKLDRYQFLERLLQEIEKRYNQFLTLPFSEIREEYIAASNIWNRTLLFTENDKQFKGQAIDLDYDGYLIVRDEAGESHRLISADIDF
Kind of assay: Enzyme Inhibition Assay. From the text: In vitro enzyme inhibition using biotin protein ligase.

In turn, `Cc1ccc2oc(=O)n(CCCn3cc(COCCC[C@@H]4SCC5NC(=O)NC54)nn3)c2c1` (stereo partly drawn) [Biotin triazole, 16] came in with a Ki of over 10 µM. In turn, `O=C1NC2CS[C@@H](CCCCCc3cn(CCCCOc4ccccc4)nn3)C2N1` (stereo partly drawn) [Biotin triazole, 11] registered a Ki of over 10 µM. The result for `O=C1NC2CS[C@@H](CCCCCc3cn(CCCOc4ccc5ccccc5c4)nn3)C2N1` (stereo partly drawn) [Biotin triazole, 15] reads over 10 µM; that for `O=C1NC2CS[C@@H](CCCCCc3cn(CCCCOc4ccc5ccccc5c4)nn3)C2N1` (stereo partly drawn) [Biotin triazole, 13], 1.17 µM. `O=C1NC2CS[C@@H](CCCCCc3cn(CCCCOc4cccc5ccccc45)nn3)C2N1` (stereo partly drawn) [Biotin triazole, 12] returned a Ki of over 10 µM. With `CC(C)(C)C(=O)OCCn1cc(CCCCC[C@@H]2SCC3NC(=O)NC32)nn1` (stereo partly drawn) [Biotin triazole, 10], the Ki was over 10 µM. For the compound `Cc1ccc2oc(=O)n(CCCCn3cc(CCCCC[C@@H]4SCC5NC(=O)NC54)nn3)c2c1` (stereo partly drawn) [Biotin triazole, 14], the Ki turned out to be 0.09 µM. The result for `Nc1ncnc2c1NCN2[C@@H]1O[C@H](Cn2cc(CCCCC[C@@H]3SCC4NC(=O)NC43)nn2)[C@@H](O)[C@H]1O` (stereo partly drawn) [Biotin triazole, 5] reads 1.17 µM.
